Measurements: article PMC10439028, “SGLT5 is the renal transporter for 1,5-anhydroglucitol, a major player in two rare forms of neutropenia” (Cellular and Molecular Life Sciences: CMLS, 2023)
Residue numbers refer to the chain shown, from its start.

Experiments:
hSGLT5 Gly471Glu = target: T1, hSGLT5 Gly471Glu (Homo sapiens, UniProt A0PJK1, G471E); assay: 1,5-AG uptake in HEK293T cells overexpressing SGLT5 variant Gly471Glu; format: cell-based
T1 construct: pUB83-hSGLT5-iso2 as well as the various SGLT5 mutants obtained were used to transduce HEK293T cells; expressed in transfected cells; host or cells: HEK293T, lentiviral transduction (pUB83)
T1 sequence (A0PJK1 1-596 G471E): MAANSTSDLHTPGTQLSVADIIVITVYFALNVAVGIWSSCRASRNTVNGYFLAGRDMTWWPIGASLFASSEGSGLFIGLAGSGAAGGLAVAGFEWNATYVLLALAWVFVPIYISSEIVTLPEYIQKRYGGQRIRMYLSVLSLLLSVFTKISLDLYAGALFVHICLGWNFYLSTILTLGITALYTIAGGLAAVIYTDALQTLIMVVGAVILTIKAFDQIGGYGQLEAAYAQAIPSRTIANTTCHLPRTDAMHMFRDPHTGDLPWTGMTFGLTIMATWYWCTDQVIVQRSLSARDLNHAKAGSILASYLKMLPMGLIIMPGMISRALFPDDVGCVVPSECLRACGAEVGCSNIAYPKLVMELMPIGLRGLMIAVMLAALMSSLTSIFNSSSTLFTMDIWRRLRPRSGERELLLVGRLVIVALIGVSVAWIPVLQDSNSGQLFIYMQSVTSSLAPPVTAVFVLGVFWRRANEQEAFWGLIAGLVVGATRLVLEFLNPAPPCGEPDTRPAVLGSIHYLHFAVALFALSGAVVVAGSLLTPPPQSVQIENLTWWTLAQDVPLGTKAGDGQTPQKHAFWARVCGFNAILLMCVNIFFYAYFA
Experimental: For a typical transporter experiment we proceeded as follows. […] To minimize cell loss during the various washing steps in the radioactive uptake experiments, the wells where the cells were seeded were previously coated with poly- D-lysine, which improved their adhesion to the plastic surface of the wells. For this, each well of the 24-well plates was treated with 200 µl of a 0.01% poly-L-lysine solution for 10 min, washed 3 times with 1 ml of sterilized water and left to dry for 2 h. Only then could the 24-well plates be seeded with the appropriate cell lines and cultured overnight at 37 °C in 5% CO2.
On day two, the radioactive uptake assay could be performed. The cell culture media was removed by aspiration and cells were incubated for 20 min at 37 °C and 5% CO2 with a basal medium (10 mM HEPES, pH 7.4, 1 mM CaCl2, 1 mM MgCl2, 2 mM KCl) containing 140 mM choline chloride to deplete intracellular […] ions. This was subsequently replaced with the uptake medium (basal medium + 140 mM NaCl, 25 μM cytochalasin B, 1 mg/ml BSA) containing either radioactive U-[^14C]-mannose (15,000 cpm/well) or 2-[^3H]-1,5-AG (30,000 cpm/well) and respectively, non-radioactive mannose or 1,5-AG, at the required concentration in the experiment. Importantly, when measuring the transport of mannose, the uptake media also contained 0.5 mM glucose. This resulted from the need to reduce the background transport of mannose in control HEK293T cells in order to optimize the transport assay for this sugar in our model cell lines. […]
Once the uptake medium was added to the cells, the plates were incubated at 37 °C in 5% CO2 during the required time. […] In each experiment, the transport activities were calculated after subtracting a “blank” value, corresponding to the radioactivity in the appropriate control cells (HEK293T cells that were stably or transiently transfected with one of the parent plasmids pEF6/MycHisA, pEF6HisB, pUB82 or pUB83 with no inserted cDNA) that were analyzed in parallel. […]

hSGLT5 Ala522Val = target: T2, hSGLT5 Ala522Val (Homo sapiens, UniProt A0PJK1, A522V); assay: Inhibition of 10 µM 1,5-AG transport by SGLT5 variant Ala522Val; format: cell-based; details: Fig. 5D
T2 construct: pUB83-hSGLT5-iso2 as well as the various SGLT5 mutants obtained were used to transduce HEK293T cells; expressed in transfected cells; host or cells: HEK293T, lentiviral transduction (pUB83)
T2 sequence (A0PJK1 1-596 A522V): T1 sequence (A0PJK1 1-596 G471E) with E471G, A522V
Experimental: The transport experiments to study the specificity of SGLT4 or SGLT5, were performed in the presence of 10 µM U-[^14C + ^12C]-mannose (for SGLT4) or 2-[^3H + ^1H]-1,5-AG (for SGLT5) and increasing concentrations of various sugars tested. The transport experiments to study the inhibition of empagliflozin, dapagliflozin or remogliflozin, on the transport of 1,5-AG by SGLT5 or its variants were performed in the presence of 10 µM 2-[^3H + ^1H]-1,5-AG and increasing concentrations of the various gliflozins tested.
SGLT5 mutants were created using the quick-change site directed mutagenesis method that enables effective mutagenesis without subcloning of the amplified PCR products. Complementary primer pairs carrying the desired replacements (Supplementary Table 3) were designed using an online tool (https://www.agilent.com/store/primerDesignProgram.jsp). The PCR protocol was carried out following the manufacturer instructions regarding the KOD HOT Start polymerase kit (TOYOBO™, Novagen). The amplified DNA was cleaned-up from the reactions constituents using the GeneJET PCR purification Kit (Thermo Scientific™) and the size of the DNA fragment were verified by DNA agarose-gel electrophoresis. […]

Row | effect of mutation on concentration of empagliflozin needed to inhibit SGLT5 (hSGLT5 Ala522Val) | Compound | Vmax (hSGLT5 Gly471Glu; variant Gly471Glu) | effect of mutation on ability of SGLT5 to transport 1,5-AG (hSGLT5 Gly471Glu; variant Gly471Glu) | Km for 1,5-AG (hSGLT5 Gly471Glu; variant Gly471Glu (rs61741107))
1 | – | OC[C@H]1OC[C@H](O)[C@@H](O)[C@@H]1O [1,5-AG, 1,5-anhydroglucitol] | No transport | abolished | No transport
2 | did not affect significantly | OC[C@H]1O[C@@H](c2ccc(Cl)c(Cc3ccc(O[C@H]4CCOC4)cc3)c2)[C@H](O)[C@@H](O)[C@@H]1O [empagliflozin] | – | – | –
